The text below walks through data of article PMC3130777, “Phase I Hydroxylated Metabolites of the K2 Synthetic Cannabinoid JWH-018 Retain In Vitro and In Vivo Cannabinoid 1 Receptor Affinity and Activity” (PLoS ONE, 2011).

In assay [1] the test system is NIH Swiss mice. As to the kind of experiment: Locomotor activity measured by radiotelemetry in mice. It is filed as in vivo, mouse. Particulars: for Locomotor activity (area under the curve) relative to vehicle controls: 10 h time course, n = 5.
The subject of assay [2] is NIH Swiss mice. As to the kind of experiment: Core body temperature measured by radiotelemetry in mice. It is filed as in vivo, mouse. Particulars: for Core body temperature area under the curve relative to vehicle controls: 0–10 hr, n = 5; for Depression in core body temperature compared with 30 mg/kg Δ^9-THC: 10 h time course.
Assay [3] addresses T1, CB1R (Mus musculus, UniProt P47746).
T1 construct: CB1Rs are endogenously expressed in abundant quantities in the CNS; from tissue; host or cells: whole brain of B6SJL mice, crude membrane homogenates
In kind it is biochemical. Particulars: for Agonist type at mCB1Rs (partial or full) / Level of G-protein stimulation relative to Δ^9-THC: 10 µM; for Agonist type at mCB1Rs (partial or full): compared with full agonist CP-55,940; for G-protein stimulation ([^35S]GTPγS bound): receptor saturating concentration (10 µM), Fig. 3A. Background: GTPγS is a poorly hydrolysed GTP analogue; its binding reports G protein activation.

Assay [4] deals with T1, CB1R. As to the kind of experiment: biochemical. It is filed as binding. Particulars: for Fold higher CB1R affinity than Δ^9-THC: relative to Δ^9-THC Ki; for Displacement of [^3H]CP-55,940 from CB1Rs: mouse brain homogenates, data not shown.
Assay [5] concerns the target CB1R. Further details: method as in PMID 10940540, PMID 21079038. Particulars: read-out: Ki values previously reported; cited from earlier work.
Where [6] appears, read: AM-251 10 mg/kg pretreatment, 30 mg/kg Δ^9-THC, 3 mg/kg JWH-018, 10 mg/kg M1 i.p.
Where [7] appears, read: concentration-effect curve, Fig. 3B, n = 3–4.
Setting [8] is: Affinity (Ki) for CB1Rs, competition against 0.2 nM [^3H]CP-55,940, mouse whole brain membrane homogenates, mean ± SEM, n = 3–4.

Values joined by “and” are separate entries in the source; they are usually repeats but may differ in a detail not shown here. Equal values may be shown once. Read-outs that look alike come from different tables or passages of the source. Bounds are passed on as bounds.

Usually EC50 stands for the concentration giving half of the maximal effect. For orientation: Ki means a dissociation constant, usually derived from enzyme kinetics or from competition with a known ligand.

T1 sequence (P47746 whole entry): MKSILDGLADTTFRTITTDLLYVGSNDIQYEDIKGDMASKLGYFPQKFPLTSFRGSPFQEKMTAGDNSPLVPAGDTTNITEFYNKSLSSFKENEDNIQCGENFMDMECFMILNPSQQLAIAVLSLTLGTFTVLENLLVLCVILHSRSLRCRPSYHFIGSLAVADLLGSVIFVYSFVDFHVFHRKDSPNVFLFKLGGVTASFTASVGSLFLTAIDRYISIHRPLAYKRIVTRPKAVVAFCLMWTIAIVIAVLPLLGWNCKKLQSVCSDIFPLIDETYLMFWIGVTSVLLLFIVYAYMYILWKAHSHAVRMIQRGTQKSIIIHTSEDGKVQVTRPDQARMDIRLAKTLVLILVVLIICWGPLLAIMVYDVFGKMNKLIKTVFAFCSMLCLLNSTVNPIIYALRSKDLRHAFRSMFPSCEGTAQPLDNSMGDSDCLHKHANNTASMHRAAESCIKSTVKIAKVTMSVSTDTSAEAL

Regarding `Cc1c(C(=O)NN2CCCCC2)nn(-c2ccc(Cl)cc2Cl)c1-c1ccc(I)cc1` [AM-251, reference compound], the “Effect of Δ^9-THC, JWH-018 and M1 on locomotor activity after antagonist pretreatment” value in assay [1] (setting [6]) was “significantly attenuated”. Besides, the “Core body temperature after antagonist pretreatment of cannabinoid-treated mice” value in assay [2] (setting [6]) is “restored core body temperature to control levels”.
Consider `CCCCCCC(C)(C)c1ccc([C@@H]2C[C@H](O)CC[C@H]2CCCO)c(O)c1` [CP-55,940, reference compound], for which, in assay [3], the “Agonist type at mCB1Rs (partial or full)” value was “full” and the “G-protein stimulation ([^35S]GTPγS bound)” value stood at 0.39 ± 0.02 pmol/mg. Moreover, the “Maximal efficacy (Emax) of G-protein activation” value in assay [3] (setting [7]) came out at 0.28 ± 0.02 pmol/mg. The concentration for a half-maximal effect (EC50) in assay [3] (concentration-effect curve, Fig. 3B, n = 3–4, read-out: EC50 of G-protein activation) is 3.36 ± 2.35 nM. The Ki in assay [4] (competition against 0.2 nM [^3H]CP-55,940, mouse whole brain membrane homogenates, mean ± SEM, n = 3–4, read-out: Affinity (Ki) for CB1Rs) is 0.26 ± 0.12 nM.
As for `CCCCCn1cc(C(=O)c2cccc3ccccc23)c2ccccc21` [JWH-018, (1-pentyl-1H-indol-3-yl)-1-naphthalenyl-methanone], in assay [1] (3 mg/kg i.p.), the “Locomotor activity (area under the curve) relative to vehicle controls” value is given as “significantly decrease”. The Ki in assay [5] is 9 nM. In addition, in assay [3], the “Level of G-protein stimulation relative to Δ^9-THC” value was “greater”, the “Agonist type at mCB1Rs (partial or full)” value was “full” and the “G-protein stimulation ([^35S]GTPγS bound)” value was found to be 0.29 ± 0.02 pmol/mg. The “Maximal efficacy (Emax) of G-protein activation” value in assay [3] (setting [7]) is 0.29 ± 0.02 pmol/mg. Besides, the Ki in assay [4] (setting [8]) is 1.2 nM and 1.22 nM. Also, the “Fold higher CB1R affinity than Δ^9-THC” value in assay [4] is reported as about 10 fold. Also, in assay [2] (3 mg/kg i.p.), the “Core body temperature area under the curve relative to vehicle controls” value is listed as “significantly lower than vehicle controls” and the “Depression in core body temperature compared with 30 mg/kg Δ^9-THC” value is listed as “greater depressions”.
In the case of `CCCCCn1cc(C(=O)c2cccc3ccccc23)c2c(O)cccc21` [M1, (4-hydroxy-1-pentyl-1H-indol-3-yl)(naphthalen-1-yl)methanone], the “Locomotor activity (area under the curve) relative to vehicle controls” value in assay [1] (10 mg/kg i.p.) is “significantly decrease”. For the same compound, in assay [3], the “Level of G-protein stimulation relative to Δ^9-THC” value was “greater” and the “Agonist type at mCB1Rs (partial or full)” value is “partial”. Also, the Ki in assay [4] (setting [8]) is 2.6 nM and 2.65 nM. Besides, in assay [4], the “Displacement of [^3H]CP-55,940 from CB1Rs” value (“Displacement” for short) was “completely displaced” and the “Fold higher CB1R affinity than Δ^9-THC” value is recorded as about 10 fold. Further, in assay [2] (10 mg/kg i.p.), the “Core body temperature area under the curve relative to vehicle controls” value is given as “significantly lower than vehicle controls” and the “Depression in core body temperature compared with 30 mg/kg Δ^9-THC” value is recorded as “greater depressions”.
As for `CCCCCn1cc(C(=O)c2cccc3ccccc23)c2cc(O)ccc21` [M2, (5-hydroxy-1-pentyl-1H-indol-3-yl)(naphthalen-1-yl)methanone], in assay [3], the “Level of G-protein stimulation relative to Δ^9-THC” value is “greater”, the “Agonist type at mCB1Rs (partial or full)” value is listed as “full” and the “G-protein stimulation ([^35S]GTPγS bound)” value was 0.32 ± 0.03 pmol/mg. In addition, the Ki in assay [4] (setting [8]) was determined as 4.22 ± 1.16 nM. Besides, the “Displacement” value in assay [4] is “completely displaced”.
For `CCCCCn1cc(C(=O)c2cccc3ccccc23)c2ccc(O)cc21` [M3, (6-hydroxy-1-pentyl-1H-indol-3-yl)(naphthalen-1-yl)methanone], in assay [3], the “Level of G-protein stimulation relative to Δ^9-THC” value was “greater” and the “Agonist type at mCB1Rs (partial or full)” value is “full”. Besides, the affinity in assay [4] (setting [8]) corresponds to a Ki of 17.2 ± 3.58 nM. The “Displacement” value in assay [4] is “completely displaced”.
The matching figures for `CCCCCn1cc(C(=O)c2cccc3ccccc23)c2cccc(O)c21` [M4]: “equivalent”, “partial”, 20.8 ± 4.85 nM and “completely displaced”.
For the compound `O=C(c1cccc2ccccc12)c1cn(CCCCCO)c2ccccc12` [M5, (1-(5-hydroxypentyl)-1H-indol-3-yl)(naphthalen-1-yl)methanone], in assay [3], the “Level of G-protein stimulation relative to Δ^9-THC” value was “greater” and the “Agonist type at mCB1Rs (partial or full)” value is on record as “full”. In assay [4] (setting [8]), this compound showed an inhibition constant Ki of 25.2 ± 4.99 nM. Moreover, the “Displacement” value in assay [4] is given as “completely displaced”.
In the case of `O=C(O)CCCCn1cc(C(=O)c2cccc3ccccc23)c2ccccc21` [M6, 5-(3-(1-naphthoyl)-1H-indol-1-yl)pentanoic acid], the Ki in assay [4] (setting [8]) is over 10000 nM. Further, the “Affinity (Ki) for CB1Rs” value in assay [4] (competition against 0.2 nM [^3H]CP-55,940, mouse whole brain membrane homogenates, mean ± SEM, n = 3–4) was “fails to bind”.
